ChEMBL document CHEMBL5154810, “Development of Potent Immune Modulators Targeting Stimulator of Interferon Genes Receptor” (J Med Chem, 2022)
pEC50, pIC50: −log10 of the molar value. The source made the active and inactive calls. No cut-off for these calls is given here.

Tests used:
[1] = Toxicity in BALB/c syngenic mouse bearing CT26 cells assessed as effect on body weight at 0.015 to 1.5 mg/kg, iv measured every 2 to 3 days for 17 days; format: organism-based; conditions: in vivo, 408 h, dose 0.015-1.5 mg/kg, time 17 day
[2] = Activation of IRF-mediated immune response in human THP1-Dual KO-STING cells co-expressing ISRE reporter assessed as normalized luciferase gene expression by measuring relative luciferase units at 50 uM incubated for 24 hrs by QUANTI Luc based microplate reader method; format: functional
Cytochrome P450 2C9 = Cytochrome P450 2C9 (Homo sapiens, UniProt P11712); assay: Inhibition of CYP2C9 in human liver microsomes tolbutamide as cocktail probe substrate preincubated for 5 mins followed by NADPH addition and measured after 30 mins by HPLC-MS/MS analysis; format: ADME, Microsome
Cytochrome P450 2C19 = Cytochrome P450 2C19 (Homo sapiens, UniProt P33261); assay: Inhibition of CYP2C19 in human liver microsomes using S-mephenytoin as cocktail probe substrate preincubated for 5 mins followed by NADPH addition and measured after 30 mins by HPLC-MS/MS analysis; format: ADME, Microsome
Cytochrome P450 3A4 = Cytochrome P450 3A4 (Homo sapiens, UniProt P08684); assay: Inhibition of CYP3A4 in human liver microsomes using […] as cocktail probe substrate preincubated for 5 mins followed by NADPH addition and measured after 30 mins by HPLC-MS/MS analysis; format: ADME, Microsome
[3] = biological target: Voltage-gated inwardly rectifying potassium channel KCNH2 (Homo sapiens, UniProt Q12809); assay: Inhibition of hERG by patch clamp assay; format: toxicity
[4] = Stability in human liver microsome assessed as parent compound remaining at 1 uM measured after 30 mins in the presence of NADPH by HPLC-MS/MS analysis; format: ADME; conditions: liver microsomes, read-out: Stability
[5] = Stability in mouse plasma assessed as parent compound remaining at 5 uM measured after 4 hrs by HPLC-MS/MS analysis; format: ADME, cell-free; conditions: read-out: Stability
[6] = Stability in human plasma assessed as parent compound remaining at 5 uM measured after 4 hrs by HPLC-MS/MS analysis; format: ADME, cell-free; conditions: read-out: Stability
[7] = biological target: T1, Stimulator of interferon genes protein (Homo sapiens, UniProt Q86WV6); assay: Activation of STING mediated immune response in human THP-1 cells assessed as induction of IFNbeta secretion measured after 24 hrs by ELISA; format: cell-based
[8] = biological target: T2, Stimulator of interferon genes protein (Mus musculus) (UniProt Q3TBT3); assay: Activation of STING mediated immune response in mouse RAW264.7 cells assessed as induction of IFNbeta secretion measured after 24 hrs by ELISA; format: cell-based; conditions: filed as activator, dose 0.32-5000 nM, DDE = dose-dependent effect
T2 sequence (whole entry): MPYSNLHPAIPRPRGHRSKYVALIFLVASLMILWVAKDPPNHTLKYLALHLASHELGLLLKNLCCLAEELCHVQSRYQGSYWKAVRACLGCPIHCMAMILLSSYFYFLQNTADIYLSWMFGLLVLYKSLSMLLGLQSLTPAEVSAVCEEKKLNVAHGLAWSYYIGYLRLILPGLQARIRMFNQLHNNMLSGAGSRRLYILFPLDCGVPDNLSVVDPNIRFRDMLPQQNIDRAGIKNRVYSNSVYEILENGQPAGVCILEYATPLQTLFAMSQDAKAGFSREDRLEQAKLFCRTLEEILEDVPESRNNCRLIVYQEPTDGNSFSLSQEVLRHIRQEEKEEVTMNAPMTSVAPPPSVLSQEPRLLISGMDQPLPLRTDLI

[9] = biological target: T1, Stimulator of interferon genes protein; assay: Activation of STING dependent immune response in wild type human THP1-Dual cells assessed as induction of IFN-beta secretion at 1.28 to 3.2 nM measured after 24 hrs by ELISA; format: cell-based; conditions: filed as activator, dose 1.28-3.2 nM
[10] = biological target: T1, Stimulator of interferon genes protein; assay: Activation of STING pathway in human THP1-cells assessed as increase in STAT1 phosphorylation at 2 nM incubated for 6 hrs by Western blotting analysis; format: cell-based; conditions: THP-1, filed as activator
THP-1 [11] = assay: Upregulation of CXCL10 in human THP-1 cells at 100 nM measured after 6 to 18 hrs by RT-PCR analysis; format: functional, cell-based; conditions: time 6-18 hrs
THP-1 [12] = assay: Upregulation of IFITM1 in human THP-1 cells at 100 nM measured after 6 to 18 hrs by RT-PCR analysis; format: functional, cell-based; conditions: time 6-18 hrs
THP-1 [13] = assay: Upregulation of OAS1 in human THP-1 cells at 100 nM measured after 6 to 18 hrs by RT-PCR analysis; format: functional, cell-based; conditions: time 6-18 hrs
THP-1 [14] = assay: Upregulation of IRF7 in human THP-1 cells at 100 nM measured after 6 to 18 hrs by RT-PCR analysis; format: functional, cell-based; conditions: time 6-18 hrs
THP-1 [15] = assay: Upregulation of ISG15 in human THP-1 cells at 100 nM measured after 6 to 18 hrs by RT-PCR analysis; format: functional, cell-based; conditions: time 6-18 hrs
[16] = Solubility of the compound in DMSO at 50 to 100 uM incubated for 72 hrs; format: physicochemical; conditions: dose 50-100 µM
Mus musculus = assay: Upregulation of IL-6 in BALB/c mouse serum at 1.5 mg/kg, iv measured after 4 hrs by ELISA; format: functional, organism-based
CT26 = assay: Antitumor activity against CT26 cells injected in BALB/c syngenic mouse model assessed as tumor growth inhibition at 1.5 mg/kg, iv measured after 17 days; format: functional; conditions: CT26, 408 h, time 17 day, read-out: TGI
[17] = biological target: Nuclear factor NF-kappa-B complex (Homo sapiens) (UniProt Q00653+P19838+Q04206); assay: Activation of NF-kappaB mediated pro-inflammatory effector proteins in human THP-1 cells at 2 to 10 nM incubated for 4 hrs by western blot analysis; format: cell-based; conditions: filed as activator, dose 2-10 nM
RAW264.7 = assay: Activation of NF-kappaB mediated pro-inflammatory effector proteins in mouse RAW264.7 cells at 100 to 500 nM for incubated for 3 hrs by western blot analysis; format: cell-based; conditions: filed as activator, dose 100-500 nM
[18] = Volume of distribution at steady state in BALB/c mouse at 3 mg/kg, iv by LC-MS/MS analysis; format: ADME, organism-based; conditions: in vivo, read-out: Vdss
[19] = Clearance in BALB/c mouse at 3 mg/kg, iv by LC-MS/MS analysis; format: ADME, organism-based; conditions: in vivo, iv, 3 mg/kg
[20] = AUClast in BALB/c mouse at 3 mg/kg, iv by LC-MS/MS analysis; format: ADME, organism-based; set-up: time 0 - last, dose 3 mg/kg, route iv; conditions: in vivo
[21] = AUCinfinity in BALB/c mouse at 3 mg/kg, iv by LC-MS/MS analysis; format: ADME, organism-based; set-up: time infinity, dose 3 mg/kg, route iv; conditions: in vivo
[22] = biological target: T1, Stimulator of interferon genes protein; assay: Activation of STING pathway in human THP1-cells assessed as increase in STING phosphorylation at 2 nM incubated for 6 hrs by Western blotting analysis; format: cell-based; conditions: THP-1, filed as activator
[23] = biological target: T1, Stimulator of interferon genes protein; conditions: THP1-Dual, filed as activator, dose 50.0 µM, time 24.0 hrs

T1 sequence (Q86WV6 whole entry): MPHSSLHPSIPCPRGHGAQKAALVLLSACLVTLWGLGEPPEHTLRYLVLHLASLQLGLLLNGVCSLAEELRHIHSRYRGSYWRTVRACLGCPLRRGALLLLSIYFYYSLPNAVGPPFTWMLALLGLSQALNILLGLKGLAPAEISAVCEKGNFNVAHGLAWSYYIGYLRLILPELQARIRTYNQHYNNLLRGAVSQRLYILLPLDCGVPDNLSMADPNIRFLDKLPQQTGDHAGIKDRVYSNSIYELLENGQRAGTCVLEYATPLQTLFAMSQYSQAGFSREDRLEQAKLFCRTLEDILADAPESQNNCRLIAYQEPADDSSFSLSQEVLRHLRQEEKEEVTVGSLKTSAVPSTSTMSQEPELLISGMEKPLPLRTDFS
Chain of Nuclear factor NF-kappa-B complex (Homo sapiens) (P19838 whole entry, looked up): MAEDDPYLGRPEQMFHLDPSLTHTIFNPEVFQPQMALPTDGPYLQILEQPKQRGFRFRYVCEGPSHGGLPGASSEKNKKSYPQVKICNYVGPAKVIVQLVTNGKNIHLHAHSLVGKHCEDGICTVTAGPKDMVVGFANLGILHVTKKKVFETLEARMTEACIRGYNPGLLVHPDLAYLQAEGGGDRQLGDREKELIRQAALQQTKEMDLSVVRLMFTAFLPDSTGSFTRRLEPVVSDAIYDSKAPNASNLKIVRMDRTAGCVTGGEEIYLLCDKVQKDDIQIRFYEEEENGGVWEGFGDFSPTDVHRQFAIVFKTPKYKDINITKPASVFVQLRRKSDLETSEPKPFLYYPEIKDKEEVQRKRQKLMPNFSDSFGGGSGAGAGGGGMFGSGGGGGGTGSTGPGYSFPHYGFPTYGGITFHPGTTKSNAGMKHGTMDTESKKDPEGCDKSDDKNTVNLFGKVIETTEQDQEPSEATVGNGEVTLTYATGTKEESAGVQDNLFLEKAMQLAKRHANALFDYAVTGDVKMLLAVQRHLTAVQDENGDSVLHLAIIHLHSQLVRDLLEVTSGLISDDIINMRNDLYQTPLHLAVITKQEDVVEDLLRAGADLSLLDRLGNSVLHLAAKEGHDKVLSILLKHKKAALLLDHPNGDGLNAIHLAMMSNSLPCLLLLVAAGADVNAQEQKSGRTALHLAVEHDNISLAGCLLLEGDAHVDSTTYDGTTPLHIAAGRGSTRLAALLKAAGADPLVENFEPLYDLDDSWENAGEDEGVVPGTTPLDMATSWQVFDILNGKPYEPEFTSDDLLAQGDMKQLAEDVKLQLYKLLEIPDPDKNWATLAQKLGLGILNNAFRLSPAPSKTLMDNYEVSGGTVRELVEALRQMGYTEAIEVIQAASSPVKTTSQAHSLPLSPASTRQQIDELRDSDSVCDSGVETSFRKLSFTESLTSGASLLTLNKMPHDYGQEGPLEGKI
Chain of Nuclear factor NF-kappa-B complex (Homo sapiens) (Q00653 whole entry, looked up): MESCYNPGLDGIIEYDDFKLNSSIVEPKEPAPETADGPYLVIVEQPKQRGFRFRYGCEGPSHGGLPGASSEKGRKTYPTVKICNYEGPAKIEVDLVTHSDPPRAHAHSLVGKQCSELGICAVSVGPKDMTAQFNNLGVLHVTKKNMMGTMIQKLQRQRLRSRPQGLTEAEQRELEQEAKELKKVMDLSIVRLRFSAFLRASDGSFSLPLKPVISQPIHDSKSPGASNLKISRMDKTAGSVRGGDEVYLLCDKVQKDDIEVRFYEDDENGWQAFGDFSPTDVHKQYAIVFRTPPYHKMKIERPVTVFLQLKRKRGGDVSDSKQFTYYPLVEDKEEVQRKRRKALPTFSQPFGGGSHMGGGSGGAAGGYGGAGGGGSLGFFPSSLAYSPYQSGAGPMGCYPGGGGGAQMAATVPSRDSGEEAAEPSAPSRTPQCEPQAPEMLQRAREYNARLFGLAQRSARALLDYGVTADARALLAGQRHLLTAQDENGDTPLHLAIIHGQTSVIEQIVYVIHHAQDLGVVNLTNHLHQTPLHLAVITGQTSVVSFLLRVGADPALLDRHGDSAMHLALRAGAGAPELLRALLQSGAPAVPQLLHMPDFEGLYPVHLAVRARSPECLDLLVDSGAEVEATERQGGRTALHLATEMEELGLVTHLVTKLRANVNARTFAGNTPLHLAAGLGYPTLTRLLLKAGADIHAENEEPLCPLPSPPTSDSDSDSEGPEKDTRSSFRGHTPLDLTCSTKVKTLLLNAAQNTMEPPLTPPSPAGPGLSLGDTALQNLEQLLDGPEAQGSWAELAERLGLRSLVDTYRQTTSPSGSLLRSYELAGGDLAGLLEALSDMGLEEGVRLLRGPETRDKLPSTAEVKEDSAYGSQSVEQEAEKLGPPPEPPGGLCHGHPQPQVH
Chain of Nuclear factor NF-kappa-B complex (Homo sapiens) (Q04206 whole entry, looked up): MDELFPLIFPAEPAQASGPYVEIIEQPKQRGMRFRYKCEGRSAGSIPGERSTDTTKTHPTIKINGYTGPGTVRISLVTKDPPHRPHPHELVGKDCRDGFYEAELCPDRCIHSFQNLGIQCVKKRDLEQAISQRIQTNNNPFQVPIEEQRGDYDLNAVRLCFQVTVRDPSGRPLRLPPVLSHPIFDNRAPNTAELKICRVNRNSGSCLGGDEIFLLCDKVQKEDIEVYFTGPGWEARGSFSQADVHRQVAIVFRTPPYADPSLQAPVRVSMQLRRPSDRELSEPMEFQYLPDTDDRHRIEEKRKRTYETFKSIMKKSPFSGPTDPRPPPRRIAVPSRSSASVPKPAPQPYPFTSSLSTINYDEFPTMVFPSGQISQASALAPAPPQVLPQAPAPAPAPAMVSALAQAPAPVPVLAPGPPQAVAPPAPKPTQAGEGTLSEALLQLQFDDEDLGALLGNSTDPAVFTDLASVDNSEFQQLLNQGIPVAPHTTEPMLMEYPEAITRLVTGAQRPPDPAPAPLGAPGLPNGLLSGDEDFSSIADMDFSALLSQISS
Chain of Cytochrome P450 2C9 (P11712 whole entry): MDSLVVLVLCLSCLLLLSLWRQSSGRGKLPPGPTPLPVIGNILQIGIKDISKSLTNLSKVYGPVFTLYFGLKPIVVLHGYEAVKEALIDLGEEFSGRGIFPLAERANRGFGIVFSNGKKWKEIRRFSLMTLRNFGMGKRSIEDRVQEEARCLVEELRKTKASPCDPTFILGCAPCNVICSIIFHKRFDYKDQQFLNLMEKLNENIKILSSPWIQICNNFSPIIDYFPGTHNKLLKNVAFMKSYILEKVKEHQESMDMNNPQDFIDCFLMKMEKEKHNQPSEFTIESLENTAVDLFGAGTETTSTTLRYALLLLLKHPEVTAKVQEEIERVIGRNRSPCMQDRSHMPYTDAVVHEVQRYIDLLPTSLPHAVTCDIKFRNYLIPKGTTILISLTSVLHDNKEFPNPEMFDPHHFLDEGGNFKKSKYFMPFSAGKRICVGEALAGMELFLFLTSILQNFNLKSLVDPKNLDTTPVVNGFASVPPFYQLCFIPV
Chain of Voltage-gated inwardly rectifying potassium channel KCNH2 (Q12809 whole entry): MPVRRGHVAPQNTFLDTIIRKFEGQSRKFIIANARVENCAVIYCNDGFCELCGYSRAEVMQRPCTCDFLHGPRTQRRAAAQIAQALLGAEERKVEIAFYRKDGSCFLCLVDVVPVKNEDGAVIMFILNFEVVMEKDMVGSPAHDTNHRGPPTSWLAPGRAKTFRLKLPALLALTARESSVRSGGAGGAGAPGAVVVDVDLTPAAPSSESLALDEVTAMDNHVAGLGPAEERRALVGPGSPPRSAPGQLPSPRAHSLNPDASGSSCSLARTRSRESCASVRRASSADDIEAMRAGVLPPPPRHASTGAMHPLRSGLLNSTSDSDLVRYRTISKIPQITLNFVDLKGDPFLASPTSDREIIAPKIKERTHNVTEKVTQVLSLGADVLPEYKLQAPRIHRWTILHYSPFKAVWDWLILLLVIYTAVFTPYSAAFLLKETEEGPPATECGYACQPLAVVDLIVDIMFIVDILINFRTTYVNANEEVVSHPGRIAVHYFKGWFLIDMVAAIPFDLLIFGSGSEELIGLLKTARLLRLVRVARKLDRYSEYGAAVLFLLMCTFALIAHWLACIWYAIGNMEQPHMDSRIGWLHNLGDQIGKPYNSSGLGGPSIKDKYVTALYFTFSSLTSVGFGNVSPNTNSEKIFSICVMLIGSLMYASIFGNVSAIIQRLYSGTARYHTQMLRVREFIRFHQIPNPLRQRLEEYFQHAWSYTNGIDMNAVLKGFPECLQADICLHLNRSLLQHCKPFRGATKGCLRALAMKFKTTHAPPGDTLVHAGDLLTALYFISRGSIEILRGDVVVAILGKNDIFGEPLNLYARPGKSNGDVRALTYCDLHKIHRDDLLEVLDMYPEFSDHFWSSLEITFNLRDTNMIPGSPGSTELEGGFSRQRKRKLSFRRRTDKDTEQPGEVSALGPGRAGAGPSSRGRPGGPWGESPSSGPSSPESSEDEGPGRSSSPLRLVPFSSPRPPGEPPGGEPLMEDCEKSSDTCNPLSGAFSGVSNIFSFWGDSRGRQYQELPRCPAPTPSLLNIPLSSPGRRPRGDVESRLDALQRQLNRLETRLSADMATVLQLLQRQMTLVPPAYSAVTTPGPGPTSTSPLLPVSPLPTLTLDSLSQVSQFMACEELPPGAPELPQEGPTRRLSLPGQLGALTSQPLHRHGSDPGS
Chain of Cytochrome P450 2C19 (P33261 whole entry): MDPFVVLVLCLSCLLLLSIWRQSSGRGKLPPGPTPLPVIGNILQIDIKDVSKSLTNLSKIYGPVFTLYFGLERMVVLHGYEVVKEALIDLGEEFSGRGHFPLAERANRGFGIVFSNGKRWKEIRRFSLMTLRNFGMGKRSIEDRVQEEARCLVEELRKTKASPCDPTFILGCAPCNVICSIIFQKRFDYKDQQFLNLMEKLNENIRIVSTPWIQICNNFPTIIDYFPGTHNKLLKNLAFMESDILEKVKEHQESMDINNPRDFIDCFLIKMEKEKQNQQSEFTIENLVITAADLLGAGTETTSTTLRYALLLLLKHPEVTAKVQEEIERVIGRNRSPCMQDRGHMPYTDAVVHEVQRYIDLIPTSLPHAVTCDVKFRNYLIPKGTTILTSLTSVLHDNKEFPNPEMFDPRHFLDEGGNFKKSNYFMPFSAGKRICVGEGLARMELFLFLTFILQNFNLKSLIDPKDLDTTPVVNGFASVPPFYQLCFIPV

In the case of CCn1nc(C)cc1C(=O)Nc1nc2cc(C(N)=O)cc(OC)c2n1C/C=C/Cn1c(NC(=O)c2cc(C)nn2CC)nc2cc(C(N)=O)cc(OCCCNC(=O)OC(C)(C)C)c21, the Activity [1] was “Non-Toxic”, the RLU [2] was 1.1 and the pIC50 (Cytochrome P450 2C9) was < 4.00. The pIC50 (Cytochrome P450 2C19) was < 4.00, the pIC50 (Cytochrome P450 3A4) was 5.38 and the pIC50 [3] was < 4.30. For the same compound, the remaining at 0.5 h, 1 µM [4] was 11.2%, the remaining at 4 h, 5 µM [5] was > 99% and the remaining at 4 h, 5 µM [6] was > 99%. The pEC50 [7] was 8.70, the Activity ([7]; filed as activator, dose 0.12-2000 nM, DDE = dose-dependent effect) was “Dde” and the Activity [8] was “Dde”. The Activity [9] was “Active”, the Activity [10] was “Active” and the Activity (THP-1 [11]) was “Active”. The Activity (THP-1 [12]) was “Active”, the Activity (THP-1 [13]) was “Active” and the Activity (THP-1 [14]) was “Active”. For the same compound, the Activity (THP-1 [15]) was “Active”, the solubility [16] was “Soluble” and the Activity (Mus musculus) was “Active”. For the same compound, the inhibition in vivo at 1.5 mg/kg (CT26) was 57%, the Activity [17] was “Active” and the Activity (RAW264.7) was “Active”. It also gave a Vd [18] of 17.7 L/kg, a CL [19] of 35.3 mL/min/kg and an AUC(0-t) [20] of 4200 ng·h/mL. For the same compound, the AUC [21] was 4780 ng·h/mL, the Activity [22] was “Active” and the RLU [23] was 102.
